GI50 and IC50 data for 17 molecules are collected here from patent US20170107207A1, “AMINOPYRAZOLONE DERIVATIVE” (DAIICHI SANKYO COMPANY, LIMITED, priority 2014, published 2017).

Test [1] relates to human lymphoma cell line RAMOS cells. Put plainly: Cell growth inhibition test using RAMOS cell, ATP assay (CellTiter-Glo). Type of test: cell-based. As to conditions: Homo sapiens, Ramos, 72 h, cultured 3 days, 50% growth inhibition concentration. The gist of the method:
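RAMOS cells seeded at 4000 cells/well with compound and cultured 3 days at 37° C, 5% CO2; viability by CellTiter-Glo luminescence. Growth rate T/C % = 100×[(B−C)/(A−C)] using day-0 and final readings; GI50 interpolated from the two concentrations bracketing 50% growth.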
(ATP-based viability assays read luminescence as a measure of living cells.)

Test [2] has as its target T1, TIP48/TIP49 complex (Homo sapiens, UniProt Q9Y230+Q9Y265).
T1 construct: made in house; host or cells: E. coli
In words: ATPase assay of TIP48/TIP49 complex (ADP-Glo). Type of test: biochemical. As to conditions: concentration at which the ATPase activity was inhibited by 50%. An outline of the steps:
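Recombinant human TIP48 and TIP49 expressed in E. coli (24.5 μg/mL final) were incubated 1.5 h at room temperature with compound (0.0007–200 μM, 2% DMSO) in Tris-HCl pH 7.5 buffer containing MgCl2 and ATP. ADP formed was detected by ADP-Glo luminescence; inhibition came from dose-response curves.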

T1 sequence (Q9Y230 whole entry): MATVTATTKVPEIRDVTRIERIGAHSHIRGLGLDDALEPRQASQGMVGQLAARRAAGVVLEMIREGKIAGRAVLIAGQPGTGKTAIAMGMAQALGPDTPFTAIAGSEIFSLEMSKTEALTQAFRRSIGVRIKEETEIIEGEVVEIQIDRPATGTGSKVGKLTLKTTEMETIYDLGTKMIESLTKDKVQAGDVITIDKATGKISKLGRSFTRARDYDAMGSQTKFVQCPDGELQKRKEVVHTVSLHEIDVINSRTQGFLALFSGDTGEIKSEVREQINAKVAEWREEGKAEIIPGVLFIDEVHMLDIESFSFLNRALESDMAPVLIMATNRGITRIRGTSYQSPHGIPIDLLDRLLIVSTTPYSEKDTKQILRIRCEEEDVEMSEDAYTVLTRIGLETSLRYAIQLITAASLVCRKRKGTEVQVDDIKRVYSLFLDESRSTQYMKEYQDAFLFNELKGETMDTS
T1 sequence (Q9Y265 whole entry): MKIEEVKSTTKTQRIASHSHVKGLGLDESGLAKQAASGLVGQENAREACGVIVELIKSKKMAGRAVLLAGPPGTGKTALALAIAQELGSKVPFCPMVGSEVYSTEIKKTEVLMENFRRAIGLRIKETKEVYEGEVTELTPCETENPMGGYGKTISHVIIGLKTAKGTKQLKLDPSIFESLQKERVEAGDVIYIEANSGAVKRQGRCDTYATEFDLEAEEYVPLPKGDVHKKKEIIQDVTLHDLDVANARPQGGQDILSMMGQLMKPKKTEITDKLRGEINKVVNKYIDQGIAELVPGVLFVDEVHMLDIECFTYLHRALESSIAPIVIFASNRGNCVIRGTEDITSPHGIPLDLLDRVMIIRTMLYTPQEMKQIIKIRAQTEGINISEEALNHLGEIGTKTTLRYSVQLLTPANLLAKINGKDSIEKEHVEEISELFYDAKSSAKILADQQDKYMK

On to `CCOc1cc(F)c(Cl)cc1C(=O)NCC(C)(C)CC(=O)Nc1c(C(C)OC)n(C)n(-c2ccccc2)c1=O` (stereo not shown) [Example 122, 5-Chloro-2-ethoxy-4-fluoro-N-(4-{[5-(1-methoxyethyl)-1-methyl-3-oxo-2-phenyl-2,3-dihydro-1H-pyrazol-4-yl]amino}-2,2-dimethyl-4-oxobutyl)benzamide], for which the 50% growth inhibitory concentration (GI50) (in general, the concentration giving 50% growth inhibition) in test [1] came out at 140 nM. Moreover, the IC50 (commonly the midpoint of a concentration-inhibition curve) in test [2] was determined as 460 nM.

In test [1], `CCOc1cc(F)c(Cl)cc1C(=O)NCC(C)(C)CC(=O)Nc1c([C@H](C)OC)n(C)n(-c2ccccc2)c1=O` [Example 123, 5-Chloro-2-ethoxy-4-fluoro-N-(4-{[5-((1S)-methoxyethyl)-1-methyl-3-oxo-2-phenyl-2,3-dihydro-1H-pyrazol-4-yl]amino}-2,2-dimethyl-4-oxobutyl)benzamide] displayed a GI50 of 120 nM. It took 39 nM to reach half-maximal inhibition in test [2] (IC50).

In the case of `CCOc1ccc(Cl)cc1C(=O)NCC(C)(C)CC(=O)Nc1c(CCC(F)(F)F)n(C)n(-c2ccccc2)c1=O` [Example 158, 5-Chloro-N-(2,2-dimethyl-4-{[1-methyl-3-oxo-2-phenyl-5-(3,3,3-trifluoropropyl)pyrazol-4-yl]amino}-4-oxobutyl)-2-ethoxybenzamide], it took 310 nM to inhibit growth in test [1] by half (GI50). The molecule also showed an IC50 in test [2] of 33 nM.

For `CCOc1ccc(Cl)cc1C(=O)NCC(C)(C)CC(=O)Nc1c(CCC(=O)N2CCCC2)n(C)n(-c2ccccc2)c1=O` [Example 133, 5-Chloro-N-(2,2-dimethyl-4-{[1-methyl-3-oxo-5-(3-oxo-3-pyrrolidin-1-ylpropyl)-2-phenyl-2,3-dihydro-1H-pyrazol-4-yl]amino}-4-oxobutyl)-2-ethoxybenzamide], in test [1], the GI50 is 500 nM. In addition, the 50% inhibitory concentration (IC50) in test [2] was determined as 81 nM.

`CCOc1ccc(Cl)cc1C(=O)NCC(CF)(CF)CC(=O)Nc1c(CCN(C)C)n(C)n(-c2ccccc2)c1=O` [Example 62, 5-Chloro-N-[4-({5-[2-(dimethylamino)ethyl]-1-methyl-3-oxo-2-phenylpyrazolo-4-yl}amino)-2,2-bis(fluoromethyl)-4-oxobutyl]-2-ethoxybenzamide] showed a GI50 in test [1] of 500 nM. Further, in test [2], the IC50 was 150 nM.

Regarding `Cc1cc2cc(Cl)cc(C(=O)NCC(C)(C)CC(=O)Nc3c(C[C@@H](C)N(C)C)n(C)n(-c4ccccc4)c3=O)c2o1` [Example 50, 5-Chloro-N-[4-({5-[(2R)-2-(dimethylamino)propyl]-1-methyl-3-oxo-2-phenyl-2,3-dihydro-1H-pyrazol-4-yl}amino)-2,2-dimethyl-4-oxobutyl]-2-methylbenzofuran-7-carboxamide], growth in test [1] was halved (GI50) at 210 nM. In test [2], the IC50 was determined as 50 nM.

On to `[2H]C([2H])([2H])n1c(CCN(C)C)c(NC(=O)CC(C)(C)CNC(=O)c2cc(Cl)ccc2OCC)c(=O)n1-c1ccccc1` [Example 43, 5-Chloro-N-[4-({3-[2-(dimethylamino)ethyl]-5-oxo-1-phenyl-2-(trideuteriomethyl)pyrazol-4-yl}amino)-2,2-dimethyl-4-oxobutyl]-2-ethoxybenzamide], for which, in test [1], the GI50 came to 190 nM. In test [2], this molecule had an IC50 of 60 nM.

`CCOc1ccc(Cl)cc1C(=O)NCC(C)(C)CC(=O)Nc1c(CCCCO)n(C)n(-c2ccccc2)c1=O` [Example 130, 5-Chloro-2-ethoxy-N-(4-{[5-(4-hydroxybutyl)-1-methyl-3-oxo-2-phenyl-2,3-dihydro-1H-pyrazol-4-yl]amino}-2,2-dimethyl-4-oxobutyl)benzamide] showed a GI50 in test [1] of 64 nM. Besides, the IC50 in test [2] was determined as 54 nM.

In test [1], `CCOc1ncc(Cl)cc1C(=O)NCC(C)(C)CC(=O)Nc1c(CCN(C)C)n(CC)n(-c2ccccc2)c1=O` [Example 42, 5-Chloro-N-[4-({5-[2-(dimethylamino)ethyl]-1-ethyl-3-oxo-2-phenyl-2,3-dihydro-1H-pyrazol-4-yl}amino)-2,2-dimethyl-4-oxobutyl]-2-ethoxypyridine-3-carboxamide] came in with a GI50 of 150 nM. The molecule also yielded an IC50 in test [2] of 80 nM.

In turn, `COCOc1ccc(Cl)cc1C(=O)NCC(C)(C)CC(=O)Nc1c(COC)n(C)n(-c2ccccc2)c1=O` [Example 115, 5-Chloro-2-(methoxymethoxy)-N-(4-{[5-(methoxymethyl)-1-methyl-3-oxo-2-phenyl-2,3-dihydro-1H-pyrazol-4-yl]amino}-2,2-dimethyl-4-oxobutyl)benzamide] gave a GI50 in test [1] of 130 nM. For the same molecule, in test [2], the midpoint of inhibition, the IC50, lay at 41 nM.

Regarding `CCOc1ncc(Br)cc1C(=O)NCC(C)(C)CC(=O)Nc1c(CCN(C)C)n(C)n(-c2ccccc2)c1=O` [Example 30, 5-Bromo-N-[4-({5-[2-(dimethylamino)ethyl]1-methyl-3-oxo-2-phenyl-2,3-dihydro-1H-pyrazol-4-yl}amino)-2,2-dimethyl-4-oxobutyl]-2-ethoxypyridine-3-carboxamide], the GI50 in test [1] worked out at 480 nM. This molecule came in with an IC50 in test [2] of 94 nM.

On to `CCOc1cc(F)c(Cl)cc1C(=O)NCC(C)(C)CC(=O)Nc1c(CCN(C)C)n(CC)n(-c2ccccc2)c1=O` [Example 41, 5-Chloro-N-[4-({5-[2-(dimethylamino)ethyl]-1-ethyl-3-oxo-2-phenyl-2,3-dihydro-1H-pyrazol-4-yl}amino)-2,2-dimethyl-4-oxobutyl]-2-ethoxy-4-fluorobenzamide], for which, in test [1], it took 98 nM to inhibit growth by half (GI50). Moreover, the IC50 in test [2] was 20 nM.

In test [1], `CCOc1ccc(Cl)cc1C(=O)NCC(CF)(CF)CC(=O)Nc1c(COC)n(C)n(-c2ccccc2)c1=O` [Example 148, N-(2,2-Bis(fluoromethyl)-4-{[5-(methoxymethyl)-1-methyl-3-oxo-2-phenyl-2,3-dihydro-1H-pyrazol-4-yl]amino}-4-oxobutyl)-5-chloro-2-ethoxybenzamide] displayed a GI50 of 230 nM. The molecule also gave an IC50 in test [2] of 83 nM.

`[2H]C([2H])([2H])N(CCc1c(NC(=O)CC(C)(C)CNC(=O)c2cc(Cl)ccc2OCC)c(=O)n(-c2ccccc2)n1C)C([2H])([2H])[2H]` [Example 31, N-{4-[(5-{2-[bis(trideuteriomethyl)amino]ethyl}-1-methyl-3-oxo-2-phenyl-2,3-dihydro-1H-pyrazol-4-yl)amino]-2,2-dimethyl-4-oxobutyl}-5-chloro-2-ethoxybenzamide] displayed a GI50 in test [1] of 170 nM. Half-maximal inhibition in test [2] (IC50) was put at 52 nM.

Regarding `CCOc1ccc(Cl)cc1C(=O)NCC(C)(C)CC(=O)Nc1c(CCNCC(F)(F)F)n(C)n(-c2ccccc2)c1=O` [Example 26, 5-Chloro-N-[2,2-dimethyl-4-({1-methyl-3-oxo-2-phenyl-5-[2-(2,2,2-trifluoroethylamino)ethyl]pyrazol-4-yl}amino)-4-oxobutyl]-2-ethoxybenzamide], it took 130 nM to inhibit growth in test [1] by half (GI50). The molecule further yielded an IC50 in test [2] of 33 nM.

Take `CCOc1ccc(Cl)cc1C(=O)NCC(C)(C)CC(=O)Nc1c(C(CN(C)C)OC)n(C)n(-c2ccccc2)c1=O` (stereo not shown) [Example 79, 5-Chloro-N-[4-({5-[2-(dimethylamino)-1-methoxyethyl]-1-methyl-3-oxo-2-phenyl-2,3-dihydro-1H-pyrazol-4-yl}amino)-2,2-dimethyl-4-oxobutyl]-2-ethoxybenzamide]: halving of growth in test [1] (GI50) required 140 nM. The IC50 in test [2] came out at 51 nM.

`CN(C)CCc1c(NC(=O)CC(C)(C)CNC(=O)c2cc(Cl)cc3c2OCCO3)c(=O)n(-c2ccccc2)n1C` [Example 16, 7-Chloro-N-[4-({5-[2-(dimethylamino)ethyl]-1-methyl-3-oxo-2-phenyl-2,3-dihydro-1H-pyrazol-4-yl}amino)-2,2-dimethyl-4-oxobutyl]-2,3-dihydro-1,4-benzodioxine-5-carboxamide] showed a GI50 in test [1] of 570 nM. Further, inhibition in test [2] was half-maximal at 68 nM (IC50).
